Test results taken from patent US20230141533A1, “LACTONE COMPOUND” (FUJIFILM Corporation, priority 2021, published 2023).
Where “and” joins values, the source holds several entries; their conditions need not be identical. Equal entries are not always repeated.

Key:
[1] = Water stability over time without applied voltage (HPLC residual rate); type: physicochemical; conditions: for Residual rate (%): aqueous mixed solution with NIKKOL HCO-40, allowed to stand at 25° C. for 24 hours, HPLC area after 24 hours ÷ area immediately after preparation × 100; for water stability over time (in words): without applied voltage, 25° C., 24 hours, judged from residual rate
Procedure: Water Stability Over Time without Applied Voltage
To 1.0 part by mass of each of the compounds (1) to (9) synthesized in Examples and Comparative Examples, 1000 parts by mass of NIKKOL HCO-40 (Nikko Chemicals Co., Ltd.) and 10000 parts by mass of acetone were mixed.
Next, after removing the acetone using an evaporator at a temperature of 40° C., 10000 parts of water was added thereto to prepare a uniform mixed solution 1. The mixed solution 1 was allowed to stand at 25° C. for 24 hours.
Immediately after the preparation of the mixed solution 1 and after allowing the mixed solution 1 to stand for 24 hours, an HPLC measurement was carried out under the following analysis conditions, and a residual rate in the water stability test over time was calculated using the following expression.
(Area value after standing for 24 hours)÷(Area value immediately after preparation)×100=Residual rate (%)
SCL-10AVP manufactured by Shimadzu Corporation
Eluent: single eluent prepared by adding 0.2% by volume of each of acetic acid and triethylamine to a mixed solution obtained by mixing tetrahydrofuran (THF) and water at a ratio of 60:40

[2] = Water stability under applied voltage (square wave voltammetry, oxidation potential); type: physicochemical; conditions: for Oxidation potential: SWV, 0.5 mM in THF:water=90:10, gold electrode, Ag wire reference, ferrocene reference substance, None = no oxidation potential, more stable than 1.3 V (THF oxidized); for water stability under applied voltage (in words): judged from whether an oxidation potential is observed
Procedure: Water Stability Under Applied Voltage
Water stability against voltage of each of the compounds (1) to (9) synthesized in Examples and Comparative Examples was evaluated by the measurement shown below.
Measurement: square wave voltammetry (SWV)
Action electrode: gold electrode
Counter electrode: platinum black electrode
Reference electrode: Ag wire
Supporting electrolyte: tetrabutylammonium hexafluorophosphate (manufactured by FUJIFILM Wako Pure Chemical Corporation)
Reference substance: ferrocene
The compound (1) was adjusted to a concentration of 0.5 mM using a mixed solvent of THF:water=90:10, and nitrogen bubbling was carried out for 10 minutes to produce a measurement sample.
Next, a measurement was performed under the above-described analysis conditions to observe an oxidation potential.
Oxidation potentials of the compounds (2) to (9) were measured under the same conditions.

Compound	Residual rate (%) [1] [%]	Oxidation potential [2]	water stability over time (in words) [1]	water stability under applied voltage (in words) [2]
Cc1cc(C)c(C2C(=O)Oc3c2cc(C(C)(C)C)cc3C(C)(C)C)c(C)c1 (stereo not drawn) [Compound (1)]	100	None		
COc1cc(OC)c(C2C(=O)Oc3c2cc(C(C)(C)C)cc3C(C)(C)C)c(OC)c1 (stereo not drawn) [Compound (2)]	95	None		
Cc1cc(C)c(C2C(=O)Oc3c2cc(C)cc3C(C)(C)C)c(C)c1 (stereo not drawn) [Compound (3)]	90	None		
COc1cc(OC)c(C2C(=O)Oc3c2cc(C)cc3C(C)(C)C)c(OC)c1 (stereo not drawn) [Compound (4)]	95	None		
Cc1ccc(C2C(=O)Oc3c2cc(C(C)(C)C)cc3C(C)(C)C)cc1C (stereo not drawn) [Compound (5)]	0	None	deteriorated	
Cc1c(C)c(C)c(C2C(=O)Oc3c2cc(C(C)(C)C)cc3C(C)(C)C)c(C)c1C (stereo not drawn) [Compound (6)]	10	None	still deteriorated	
CCCCCCCCOc1ccc(C2C(=O)Oc3c2cc(C(C)(C)C)cc3C(C)(C)C)cc1 (stereo not drawn) [Compound (7)]	0	None	deteriorated	
Cc1c(C(C)(C)C)cc(C(C)(C)C)c(O)c1C1C(=O)Oc2c1cc(C(C)(C)C)cc2C(C)(C)C (stereo not drawn) [Compound (8)]	0	0.65 V and 1.00 V and 1.15 V		low
CC(C)(C)c1cc(C2C(=O)Oc3c2cc(C(C)(C)C)cc3C(C)(C)C)c(O)c(C(C)(C)C)c1 (stereo not drawn) [Compound (9)]				low
